Assay results published in paper PMC7744367 (European journal of medicinal chemistry, 2020).
Read-outs that look alike come from different tables or passages of the source.

Tests used:
CQS 3D7 strain = test: In vitro antiplasmodial activity, SYBR Green I-based fluorescent assay; format: cell-based, P. falciparum; conditions: Plasmodium falciparum, 3D7, 72 h, read-out: Antiplasmodial activity EC50 3D7
[1] = system: CQR Dd2 strain of P. falciparum; test: microbe, parasite or virus in culture; format: cell-based
in vitro = conditions: human
[2] = system: P. falciparum Dd2 asynchronous cultures; test: In vitro killing profile assay; format: cell-based; conditions: 5 × EC50, Dd2, compound washed out, growth monitored 96 h
[3] = system: tightly synchronized P. falciparum Dd2 cultures; test: Stage specific action assay; format: cell-based; conditions: 5 × EC50, synchronized Dd2, late schizont/segmenters
[4] = Plasmodium falciparum, DD2, 72 h, read-out: Antiplasmodial activity EC50 Dd2, CQR Dd2 strain, 72 h incubation, at least three independent experiments

In the case of `CCN(CC)CCCC(C)Nc1ccnc2cc(Cl)ccc12` (centres unmarked) [CQ, chloroquine], the EC50 (CQS 3D7 strain) is reported as 20 ± 10 nM, the EC50 ([1]; Plasmodium falciparum, DD2, 72 h, read-out: Antiplasmodial activity EC50 Dd2) is reported as 170 ± 20 nM and the EC50 at 48 h (in vitro) is reported as 10.4 ± 0.86 µM.
For `Clc1ccc2nc(/C=C/c3ccncc3)cc(-n3cc(CN4CCOCC4)nn3)c2c1` [compound 28, (E)-4-((1-(6-chloro-2-(2-(pyridin-4-yl)vinyl)quinolin-4-yl)-1H-1,2,3-triazol-4-yl)-methyl)morpholine], the EC50 [1, 4] was over 8000 nM.
`CN1CCN(Cc2cn(-c3cc(/C=C/c4ccncc4)nc4ccc(Cl)cc34)nn2)CC1` [compound 29, (E)-6-chloro-4-(4-((4-methylpiperazin-1-yl)methyl)-1H-1,2,3-triazol-1-yl)-2-(2-(pyridin-4-yl)vinyl)quinoline] gave an EC50 [1, 4] of over 8000 nM.
With `O=C1c2ccccc2C(=O)N1Cc1cn(-c2cc(/C=C/c3ccncc3)nc3ccc(Cl)cc23)nn1` [compound 32, (E)-2-((1-(6-chloro-2-(2-(pyridin-4-yl)vinyl)quinolin-4-yl)-1H-1,2,3-triazol-4-yl)methyl)isoindoline-1,3-dione] the EC50 [1, 4] was over 8000 nM.
In the case of `Clc1ccc2nc(/C=C/c3ccncc3)cc(NCCn3cc(CN4CCOCC4)nn3)c2c1` [compound 53, (E)-6-chloro-N-(2-(4-(morpholinomethyl)-1H-1,2,3-triazol-1-yl)ethyl)-2-(2-(pyridin-4-yl)vinyl)quinolin-4-amine], the “fold improved activity over analogue 28” value ([1]; Dd2 EC50 ratio) is reported as “above 5 fold”.
In the case of `O=C1c2ccccc2C(=O)N1Cc1cn(CCNc2cc(/C=C/c3ccncc3)nc3ccc(Cl)cc23)nn1` [compound 57, (E)-2-((1-(2-((6-chloro-2-(2-(pyridin-4-yl)vinyl)quinolin-4-yl)amino)ethyl)-1H-1,2,3-triazol-4-yl)methyl)isoindoline-1,3-dione], the “fold more potent than compound 32” value ([1]; Dd2 EC50 ratio) is reported as about 8 fold.
With `Clc1ccc2nc(/C=C/c3ccncc3)cc(NCCCCn3cc(CN4CCCCC4)nn3)c2c1` [compound 60, (E)-6-chloro-N-(4-(4-(piperidin-1-ylmethyl)-1H-1,2,3-triazol-1-yl)butyl)-2-(2-(pyridin-4-yl)vinyl)quinolin-4-amine] the “parasite viability after 24 and 48 h exposure” value [2] was “complete loss of parasite viability” and the “effect on intraerythrocytic development, compound added at 42 h” value [3] was “did not affect the schizont maturation and reinvasion of new merozoites”.
Work on “(E)-2-((1-(4-((6-chloro-2-styrylquinolin-4-yl)amino)butyl)-1H-1,2,3-triazol-4-yl)methyl)isoindoline-1,3-dione [compound 64]” yielded an EC50 ([1]; read-out: Antiplasmodial activity EC50 Dd2, CQR Dd2 strain, 72 h incubation, at least three independent experiments) of 1000 ± 180 nM.
